According to patent publication US20040014637A1, “Mechanism for the inactivation of insulin receptor and uses in the treatment of type II diabetes” (McGill University, priority 1998, published 2004):
Entries after “also recorded” stand apart in the source; their conditions may differ.

Columns and labels:
[1] = target: T1, insulin receptor kinase (IRK) β-subunit (Rattus norvegicus, UniProt P15127); test: IRK β-subunit phosphotyrosine content (αPY immunoblot of WGA eluates); format: biochemical
T1 construct: from tissue; host or cells: rat liver; endosome (EN) and plasma membrane (PM) fractions
T1 sequence (P15127 27-759 limits assumed): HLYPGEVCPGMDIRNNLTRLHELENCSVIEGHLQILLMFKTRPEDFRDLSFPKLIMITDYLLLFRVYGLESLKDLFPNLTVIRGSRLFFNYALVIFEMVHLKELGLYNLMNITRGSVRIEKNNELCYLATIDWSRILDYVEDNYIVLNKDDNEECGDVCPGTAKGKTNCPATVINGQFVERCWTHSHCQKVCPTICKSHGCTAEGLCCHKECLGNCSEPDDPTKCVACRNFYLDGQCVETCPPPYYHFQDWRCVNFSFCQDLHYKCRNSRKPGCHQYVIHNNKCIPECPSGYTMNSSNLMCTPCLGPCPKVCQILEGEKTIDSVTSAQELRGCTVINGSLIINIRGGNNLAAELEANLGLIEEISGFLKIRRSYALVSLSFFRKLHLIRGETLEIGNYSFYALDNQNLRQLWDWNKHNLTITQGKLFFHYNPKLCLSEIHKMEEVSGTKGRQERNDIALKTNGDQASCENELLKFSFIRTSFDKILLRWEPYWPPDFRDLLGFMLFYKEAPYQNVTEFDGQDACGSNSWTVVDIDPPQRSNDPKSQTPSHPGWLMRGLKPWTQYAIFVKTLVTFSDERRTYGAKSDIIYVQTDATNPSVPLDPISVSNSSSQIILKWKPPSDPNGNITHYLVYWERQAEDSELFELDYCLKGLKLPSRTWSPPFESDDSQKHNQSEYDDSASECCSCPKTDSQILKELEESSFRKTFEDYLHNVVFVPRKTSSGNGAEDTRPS
T1 sequence (P15127 764-1383 limits assumed): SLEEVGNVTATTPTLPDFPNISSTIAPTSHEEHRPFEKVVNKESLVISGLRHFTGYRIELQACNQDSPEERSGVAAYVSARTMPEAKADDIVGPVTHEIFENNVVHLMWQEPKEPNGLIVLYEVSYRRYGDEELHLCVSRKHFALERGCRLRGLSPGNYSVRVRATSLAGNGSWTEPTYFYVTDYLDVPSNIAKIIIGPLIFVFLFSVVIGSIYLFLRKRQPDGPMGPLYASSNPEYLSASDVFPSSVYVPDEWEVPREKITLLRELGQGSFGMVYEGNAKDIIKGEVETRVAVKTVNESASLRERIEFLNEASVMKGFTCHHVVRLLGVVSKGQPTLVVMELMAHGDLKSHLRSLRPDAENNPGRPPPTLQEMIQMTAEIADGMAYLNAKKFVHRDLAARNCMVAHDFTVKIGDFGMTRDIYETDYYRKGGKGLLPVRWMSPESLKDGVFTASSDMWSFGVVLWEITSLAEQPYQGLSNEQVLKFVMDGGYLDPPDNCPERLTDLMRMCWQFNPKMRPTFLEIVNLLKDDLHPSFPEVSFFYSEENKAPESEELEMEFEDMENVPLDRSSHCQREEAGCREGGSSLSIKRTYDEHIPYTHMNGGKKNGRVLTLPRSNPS
Procedure: The phosphotyrosine content of endosomal IRs (ENs containing IR) was determined by subjecting lectin column (WGA-Sepharose™)-purified preparations to SDS-PAGE and immunoblotting with α960 and αPY (Faure et al. (1992) J. Biol. Chem. 267, 11215-11221). […] FIG. 1B illustrates the effect of ATP on β subunit phosphotyrosine content. WGA eluates (5 μg protein) were subjected to SDS-PAGE in 7.5% gels followed by transfer of proteins to Immobilon-P membranes. Membranes were probed with αPY or α960 antibodies followed by incubation with ^125I-GAR as second antibody and exposed for autoradiography.

[2] = target: T1, insulin receptor kinase (IRK) β-subunit; test: 2-D phosphoamino acid analysis of the IRK β-subunit; format: biochemical; conditions: ENs incubated with 1 or 5 mM γ-32P ATP, 15 min 37° C.
Procedure: ENs containing IR were removed from the 0.6/1.0 M sucrose interface of the gradient used in endosomal purification, and diluted with 0.25 M sucrose to a final protein concentration of 50 μg/ml. A 30 ml aliquot was centrifuged at 200,000×gav for 40 mins prior to resuspending in 500 μl of cell-free system buffer (44 mM HEPES (pH 7.4), 0.55 M sucrose, 333 mM KCl, 11 mM NaCl, 11 mM MgCl2). Incubations were initiated by adding 500 μl of 10 mM Tricine buffer containing either 2 or 10 mM ATP at a specific activity of 0.5 mCi ^32P/mmol. After incubating for 15 min at 37° C. the reaction was stopped by adding an equal volume of ice-cold 20 mM HEPES, 0.25 M sucrose, 2 mM PMSF, 2 mM benzamidine, 4 mM Na orthovanadate and 80 mM Na fluoride. […]
Previous work has shown that serine/threonine phosphorylation of the β-subunit of the IRK results in an inhibition of IRK activity. We thus determined if incubating ENs containing IR with 5 mM ATP promotes the phosphorylation of IRK on serine and threonine residues. […]

insulin receptor = target: T2, insulin receptor (Rattus norvegicus, UniProt P15127); test: 125I-insulin binding after preincubating endosomes (ENs containing IR) with nucleotides; conditions: for 125I-insulin specific binding, WGA-purified endosomes / 125I-insulin specific binding, solubilized endosomes: preincubation 37° C. 15 min; for 125I-Insulin specific binding (%), Solubilized endosomes / 125I-Insulin specific binding (%), WGA-purified endosomes: Table 2, normalized to endosomes without nucleotide
T2 construct: from tissue; host or cells: rat liver; endosome (EN) and plasma membrane (PM) fractions
T2 sequence (P15127 27-759 limits assumed): as the sequence (P15127 27-759 limits assumed) above
T2 sequence (P15127 764-1383 limits assumed): as the sequence (P15127 764-1383 limits assumed) above
Procedure: Rats were anaesthetized with ether and were injected via jugular vein with a dose (per 100 g body weight) of insulin (1.5 μg), or bpV(phen) (0.6 μmol), dissolved in 0.2 ml. phosphate buffered saline (pH 7.4) −0.1% BSA. […] Livers were rapidly excised, placed in ice-cold homogenizing buffer (50 mM HEPES (pH 7.4), 0.25 M sucrose, 1 mM PMSF, 1 MM MgCl2, 1 mM benzamidine) and minced before homogenization. […] These subcellular fractions have been characterized in detail both morphologically and biochemically.
After 10 min at room temperature, the reactions was terminated by spotting 50 μl aliquots on Whatman 3 MM filters.
In the present study we wished to assess whether other processes might be involved in reducing the association of intraendosomal insulin with its receptor. We examined the effect of incubating intact ENs containing IR with increasing concentrations of ATP on subsequently measured insulin and hGH binding in both solubilized and WGA-purified receptors.

[3] = target: T3, insulin receptor kinase (IRK) (Rattus norvegicus, UniProt P15127); test: Insulin receptor kinase (IRK) exogenous tyrosine kinase activity, Poly (Glu:Tyr) (4:1) substrate, WGA-purified IRK from preincubated cell fractions; format: biochemical; conditions: for IRK activity of ENs containing IR (FIG. 1A): versus absence of ATP
T3 construct: from tissue; host or cells: rat liver; endosome (EN) and plasma membrane (PM) fractions
T3 sequence (P15127 27-759 limits assumed): as the sequence (P15127 27-759 limits assumed) above
T3 sequence (P15127 764-1383 limits assumed): as the sequence (P15127 764-1383 limits assumed) above

[4] = preincubation 1 mM ATP 15 min, second incubation 5 mM ATP
[5] = sequential incubations in 1 mM ATP

Compound: Nc1ncnc2c1ncn2[C@@H]1O[C@H](COP(=O)(O)OP(=O)(O)OP(=O)(O)O)[C@@H](O)[C@H]1O [ATP, adenosine 5′triphosphate]
- IRK phosphotyrosine content (FIG. 1B) ([1]; 1 mM ATP, 15 min 37° C.): markedly increased
- IRK phosphotyrosine content (FIG. 1B) ([1]; 5 mM ATP, compared to 1 mM ATP): significantly reduced
- IRK phosphotyrosine content (FIG. 1B) ([1]; 10 mM ATP, compared to 1 mM ATP): virtually abolished
- IRK phosphotyrosine content after sequential incubations (FIG. 7A) [1, 4]: substantial retention
- IRK phosphotyrosine content after sequential incubations [1, 5]: no deleterious effect
- 32P phosphoserine in IRK β-subunit (FIG. 5) [2]: no detectable
- 125I-insulin specific binding, WGA-purified endosomes (insulin receptor; ATP 0.1 mM, percent of control): 107.7 ± 1.5%
- 125I-insulin specific binding, solubilized endosomes (insulin receptor; ATP 0.1 mM, percent of control ENs without ATP): 103.6 ± 2.5%
- 125I-insulin specific binding, WGA-purified endosomes (insulin receptor; ATP 1 mM, percent of control): 123.9 ± 6.2%
- 125I-insulin specific binding, solubilized endosomes (insulin receptor; ATP 1 mM, percent of control): 90.9 ± 4.2%
- 125I-insulin specific binding, WGA-purified endosomes (insulin receptor; ATP 3 mM, percent of control): 99.3 ± 0.9%
- 125I-insulin specific binding, solubilized endosomes (insulin receptor; ATP 3 mM, percent of control): 96.7 ± 2.6%
- 125I-insulin specific binding, WGA-purified endosomes (insulin receptor; ATP 5 mM, percent of control): 52.1 ± 1.2%
- 125I-insulin specific binding, solubilized endosomes (insulin receptor; ATP 5 mM, percent of control): 84.2 ± 2.7%
- 125I-insulin specific binding, WGA-purified endosomes (insulin receptor; ATP 10 mM, percent of control): 8.4 ± 0.2%
- 125I-Insulin specific binding (%), Solubilized endosomes (insulin receptor; addition 0.1 mM, 37° C. 15 min): 103.4 ± 2.5%
- 125I-Insulin specific binding (%), WGA-purified endosomes (insulin receptor; addition 0.1 mM, 37° C. 15 min): 108.1 ± 2.0%
- 125I-Insulin specific binding (%), Solubilized endosomes (insulin receptor; addition 1 mM, 37° C. 15 min): 95.5 ± 14.2%
- 125I-Insulin specific binding (%), WGA-purified endosomes (insulin receptor; addition 1 mM, 37° C. 15 min): 92.2 ± 2.2%
- 125I-Insulin specific binding (%), Solubilized endosomes (insulin receptor; addition 10 mM at 4° C. (on ice)): 112.0 ± 3.3%
- 125I-Insulin specific binding (%), Solubilized endosomes (insulin receptor; addition 10 mM, 37° C. 15 min): 43.6 ± 6.3%
- 125I-Insulin specific binding (%), WGA-purified endosomes (insulin receptor; addition 10 mM, 37° C. 15 min): 25.2 ± 5.2%
- IRK activity of ENs containing IR (FIG. 1A) ([3]; 5 mM ATP, 15 min 37° C.): marked decrease
- IRK activity of ENs containing IR ([3]; 10 mM ATP, 15 min 37° C.): virtually abolished; also recorded: suppressed IRK activity completely
- IRK activity of ENs containing IR (FIG. 1A) ([3]; 0.1 and 1.0 mM ATP, 15 min 37° C.): increase
- Activity of WGA-purified IRK from plasma membrane (PM) (FIG. 3A) ([3]; PM containing IR preincubated with ATP (1 and 10 mM), 15 min 37° C.): augmentation of activity
- IRK activity after sequential incubations (FIG. 7B) [3, 4]: marked reduction
- IRK activity after sequential incubations [3, 5]: no deleterious effect
